Experiments:
[1] = xn = mol fraction of the nth substance listed; conditions: 298.15 K, 101 kPa, Liquid
[2] = excess molar enthalpy (molar enthalpy of mixing); xn = mol fraction of the nth substance listed; conditions: 298.15 K, 101 kPa, Liquid

BrCCCBr [1,3-dibromopropane] + CCC(=O)OC
Conditions | excess molar enthalpy [kJ/mol] | mass density [kg/m3]
[1], x2 = 0.059 | – | 1909.4
[1], x2 = 0.1261 | – | 1841.06
[1], x2 = 0.1889 | – | 1776.8
[1], x2 = 0.243 | – | 1720.78
[1], x2 = 0.3657 | – | 1593.37
[1], x2 = 0.4328 | – | 1523.29
[1], x2 = 0.4901 | – | 1462.96
[1], x2 = 0.5464 | – | 1403.57
[1], x2 = 0.6165 | – | 1328.98
[1], x2 = 0.7214 | – | 1216.43
[1], x2 = 0.7712 | – | 1162.65
[1], x2 = 0.8235 | – | 1105.81
[1], x2 = 0.8863 | – | 1037.06
[1], x2 = 0.9375 | – | 980.57
[2], x2 = 0.0646 | 0.0699 | –
[2], x2 = 0.1354 | 0.114 | –
[2], x2 = 0.2107 | 0.142 | –
[2], x2 = 0.2845 | 0.155 | –
[2], x2 = 0.3517 | 0.153 | –
[2], x2 = 0.4137 | 0.141 | –
[2], x2 = 0.4627 | 0.125 | –
[2], x2 = 0.4703 | 0.123 | –
[2], x2 = 0.5077 | 0.111 | –
[2], x2 = 0.5202 | 0.103 | –
[2], x2 = 0.5574 | 0.0929 | –
[2], x2 = 0.566 | 0.0847 | –
[2], x2 = 0.6073 | 0.0653 | –
[2], x2 = 0.6129 | 0.0576 | –
[2], x2 = 0.6726 | 0.0311 | –
[2], x2 = 0.7385 | 0.0021 | –
[2], x2 = 0.8065 | -0.0135 | –
[2], x2 = 0.873 | -0.0147 | –
[2], x2 = 0.9388 | -0.009 | –

BrCCBr [1,2-dibromoethane] + COC=O
Conditions | excess molar enthalpy [kJ/mol] | mass density [kg/m3]
[1], x2 = 0.0941 | – | 2084.41
[1], x2 = 0.1513 | – | 2030.58
[1], x2 = 0.2019 | – | 1980.75
[1], x2 = 0.251 | – | 1931.96
[1], x2 = 0.2967 | – | 1881.94
[1], x2 = 0.3904 | – | 1784.54
[1], x2 = 0.4985 | – | 1662.03
[1], x2 = 0.5973 | – | 1543.27
[1], x2 = 0.7057 | – | 1404.1
[1], x2 = 0.7483 | – | 1346.2
[1], x2 = 0.7967 | – | 1278.68
[1], x2 = 0.8478 | – | 1205.01
[1], x2 = 0.8808 | – | 1155.98
[1], x2 = 0.9402 | – | 1064.28
[2], x2 = 0.0726 | 0.235 | –
[2], x2 = 0.1528 | 0.47 | –
[2], x2 = 0.2426 | 0.653 | –
[2], x2 = 0.3298 | 0.749 | –
[2], x2 = 0.4034 | 0.795 | –
[2], x2 = 0.4719 | 0.812 | –
[2], x2 = 0.5315 | 0.802 | –
[2], x2 = 0.5856 | 0.773 | –
[2], x2 = 0.6347 | 0.732 | –
[2], x2 = 0.6786 | 0.681 | –
[2], x2 = 0.7171 | 0.627 | –
[2], x2 = 0.7759 | 0.531 | –
[2], x2 = 0.8639 | 0.355 | –
[2], x2 = 0.9405 | 0.172 | –

BrCCBr [1,2-dibromoethane] + CCCC(=O)OC
Conditions | excess molar enthalpy [kJ/mol] | mass density [kg/m3]
[1], x2 = 0.0456 | – | 2090.91
[1], x2 = 0.0934 | – | 2013.52
[1], x2 = 0.138 | – | 1943.4
[1], x2 = 0.1885 | – | 1866.04
[1], x2 = 0.2437 | – | 1784.45
[1], x2 = 0.2925 | – | 1714.77
[1], x2 = 0.3454 | – | 1641.47
[1], x2 = 0.4047 | – | 1562.1
[1], x2 = 0.5193 | – | 1415.94
[1], x2 = 0.5812 | – | 1340.87
[1], x2 = 0.6461 | – | 1264.87
[1], x2 = 0.7118 | – | 1190.49
[1], x2 = 0.7767 | – | 1119.58
[1], x2 = 0.8458 | – | 1046.47
[1], x2 = 0.9209 | – | 970.06
[2], x2 = 0.0509 | 0.0205 | –
[2], x2 = 0.1042 | 0.0323 | –
[2], x2 = 0.1621 | 0.0359 | –
[2], x2 = 0.2266 | 0.0313 | –
[2], x2 = 0.2928 | 0.0175 | –
[2], x2 = 0.3635 | -0.0036 | –
[2], x2 = 0.4243 | -0.0281 | –
[2], x2 = 0.4796 | -0.0481 | –
[2], x2 = 0.537 | -0.0618 | –
[2], x2 = 0.6008 | -0.0691 | –
[2], x2 = 0.6755 | -0.0704 | –
[2], x2 = 0.7537 | -0.0638 | –
[2], x2 = 0.8373 | -0.0493 | –
[2], x2 = 0.9188 | -0.0296 | –

From the NIST ThermoML archive (doi:10.1016/j.jct.2006.05.004)
